Test results from US6512007B1, “Use of galiella lactone” (Bayer Aktiengesellschaft, priority 2000, dated 2003).

What was measured:
Stat1 = assay: IL-6-induced tyrosine-701 phosphorylation of Stat1 in HepG2 cells, immunoprecipitation/Western blot; assay type: cell-based, human; details: HepG2, IL-6 50 ng/ml; all concentrations tested, up to 16 μg/ml, equivalent to 165 μM
Description: A crucial step in IL-6-dependent intracellular signal transduction is the phosphorylation of tyrosine-705 in Stat3 and tyrosine-701 in Stat1. […] However, inhibitors which inhibit the Stat3 and Stat1 phosphorylation also have crucial effects on other signal cascades, and therefore pharmaceutically usable inhibitors of IL-6-dependent gene expression should, in the concentration range in which they display their pharmacological effect, affect the Stat3 or Stat1 phosphorylation only slightly or not at all.
Seed out HepG2 cells in Petri dishes (diameter: 10 cm) (OptiMEM medium with 10% fetal calf serum and penicillin/streptomycin (100 iu) cell density: 5×10^5 cell/ml). Incubate in a moist atmosphere with 5% CO2 at 37° C. for 24 h. Replace medium by fresh OptiMEM medium with 0.5% fetal calf serum and penicillin/streptomycin (100 iu) and incubate for a further 48 h. Replace medium by fresh OptiMEM medium with 0.5% fetal calf serum and penicillin/streptomycin (100 iu), add test substances in various concentrations, and incubate for 60 min. 5 μl of the substances dissolved in ethanol, or only ethanol (controls), were added per mixture (10 ml). Induce cells by adding IL-6 (final concentrations 50 ng/ml).
After 20 min. remove medium and wash cell lawn twice wtih 1.5 ml of ice-cold PBS (137 mM NaCl, 2.7 mM KCl, 8.1 mM Na2HPO4×2H2O, 1.5 mM KH2PO4) each time. […]

[1] = test system: 6-hydroxydopamine lesion of the substantia nigra; assay: 6-Hydroxydopamine (6-OH-DA) lesion in the rat, staircase test (forepaw coordination); assay type: in vivo; details: bid, i.p.
activated Stat3 dimers = target: T1, activated Stat3 dimers (Homo sapiens, UniProt P40763); assay: Electrophoretic mobility shift assay: DNA binding of activated Stat3 dimers to m67SIE probe; details: 16 ng/ml (82 nM), HepG2
T1 construct: Probe used: m67SIE, induction time 20 minutes: cell line: HepG2; endogenous in cells; host or cells: HepG2 (cell extract)
Description: The DNA binding of activated Stat3 dimers to their binding sites in the promoters of the target genes is the basic requirement for transcriptional activation of these genes. At the same time, this step is specific for Stat3, i.e. inhibition of this step would result in specific inhibition of IL-6-induced and Stat3-mediated expression of the target genes without simultaneously affecting other signal cascades. The effect of the various compounds on the DNA binding ability of the phosphorylated and thus activated Stat3 dimers was analysed by carrying out electrophoretic mobility shift assays (EMSAs, gel shift assays).
The procedure was as described in Nature, 1993, 362: 79-83 and Mol. Cell Biol, 1998, 18: 2108-17. The DNA probe used was the ^32P-labelled, double-stranded oligonucleotide with the m67SIE recognition sequence (S2) (wild-type) (cf. EMBO J. 1995, 14: 1421-9)
It was possible to show with control mixtures in which the induced control was preincubated with phospho-Stat3 (tyrosine 705)-specific antibodies that it is Stat3 phosphorylated on the tyrosine 705 residue which binds to the m67SIE probe (see FIG. 6).
Effect of galiella lactone on the binding of activated Stat3 dimers to their DNA recognition sequence. Probe used: m67SIE, induction time 20 minutes: cell line: HepG2.

T1 sequence (P40763 2-770 limits assumed): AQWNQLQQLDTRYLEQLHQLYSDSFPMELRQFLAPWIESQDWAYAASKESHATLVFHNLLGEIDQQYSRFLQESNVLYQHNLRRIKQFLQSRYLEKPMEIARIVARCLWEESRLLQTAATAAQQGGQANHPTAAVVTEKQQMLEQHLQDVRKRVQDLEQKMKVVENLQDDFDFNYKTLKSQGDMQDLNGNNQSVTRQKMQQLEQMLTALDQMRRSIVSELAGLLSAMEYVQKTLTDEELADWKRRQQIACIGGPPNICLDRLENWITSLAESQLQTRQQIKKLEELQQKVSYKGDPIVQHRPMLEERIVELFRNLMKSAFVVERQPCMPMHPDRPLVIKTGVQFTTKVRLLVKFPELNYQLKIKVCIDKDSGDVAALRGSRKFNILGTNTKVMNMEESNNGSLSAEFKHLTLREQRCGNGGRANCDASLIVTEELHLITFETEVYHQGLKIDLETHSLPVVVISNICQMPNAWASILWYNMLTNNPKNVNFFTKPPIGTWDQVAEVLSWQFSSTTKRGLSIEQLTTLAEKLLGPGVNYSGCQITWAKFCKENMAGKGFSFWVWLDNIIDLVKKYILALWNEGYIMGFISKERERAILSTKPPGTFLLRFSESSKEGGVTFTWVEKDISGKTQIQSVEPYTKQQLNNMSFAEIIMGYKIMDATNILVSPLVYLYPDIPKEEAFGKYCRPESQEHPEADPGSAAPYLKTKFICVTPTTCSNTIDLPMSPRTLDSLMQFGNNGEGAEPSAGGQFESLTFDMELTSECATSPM

C[C@H]1C=C2C(=O)O[C@H]3CC[C@@H](C1)[C@@]23O [galiella lactone]
effect on the phosphorylation of Stat1 (Stat1): no effect
fine motor control of the forepaws (staircase test) ([1]; 1.0 mg/kg): improved
fine motor control of the forepaws (staircase test) ([1]; 3.0 mg/kg): improved
binding of the activated Stat3 dimers to their recognition sequence (activated Stat3 dimers): completely inhibits
